Source: patent US9856304B2, “Peptide and application thereof” (Saitama Medical University, priority 2013, dated 2018)

Test system: human iPS cells (253G1 cells)
Test: Differentiation induction of human iPS cells into pancreatic hormone-producing cells (2), quantitative RT-PCR
Format: cell-based
Conditions: 1 nM betagenin in steps (A2) to (D2), vs ACN control, GAPDH corrected
Experimental: As human iPS cells, used were 253G1 cells purchased from the cell bank at RIKEN. The cells were cultured/maintained in an ES cell culture medium (DMEM/ham F12, 20% KSR, nonessential amino acid, 2 mM L-glutamine, 0.1 mM 2-mercaptoethanol, 5.2 mM NaOH) with added 4 ng/mL FGF-2 (Global Stem) and penicillin/streptomycin (Nacalai Tesque, Inc.) along with SNL76/7 cells (DS Pharma Biomedical) treated with mitomycin-C. CTK (0.25% trypsin, 1 mg/mL Collagenase IV, 20% KSR, 1 mM CaCl2 in PBS) was used for cell detachment, and diluted at a ratio of 1:3 to 1:4 to perform passage culture.
The cells were detached with trypsin-EDTA 3 days before the start of differentiation induction, and plated at a cell density of 6.3×10^4 cells/cm2, and cultured for 1 day in an ES cell culture medium with added 10 μM Y-27632 (Wako), 4 ng/mL FGF-2 and penicillin/streptomycin along with STO cells treated with mitomycin-C. Subsequently, they were further cultured for 2 days in an ES cell culture medium with added 4 ng/mL FGF-2 and penicillin/streptomycin.
On the first day of the start of differentiation induction, the culture medium was replaced with a RPMI1640 culture medium (Nacalai Tesque, Inc.) with added 2% (v/v) FBS, 100 ng/mL activin A (SBI), 3 μM CHIR99021 (Axon Medchem) and 1 nM betagenin, and cultured for 1 day (Step (A2)). […]
The gene expressions of insulin, glucagon, somatostatin were confirmed by quantitative RT-PCR for cells (n=3 for each of the betagenin addition group and the control group) obtained from 253G1 cells via the above steps (A2) to (D2). Specifically, total RNA was first extracted from the cells using a SV Total RNA Isolation System (Promega), and reverse transcription reactions were performed with BioScript™ transcriptase (Bioline), and then quantitative PCR analysis was performed with LightCycler™ (Roche) using SYBR™ Green PCR Master Mix (Applied Biosystems). Note that the gene expression of GAPDH was determined by quantitative RT-PCR as an internal control. […]

betagenin: chemically synthesized peptide of SEQ ID NO: 1, fragment of human TM4SF20 from Position 170 to Position 229 (WRASSFHFDSEENKHRLIHFSVFLGLLLVGILEVLFGLSQIVIGFLGCLCGVSKRRSQIV; Peptide Sequence betagenin; listed as Homo sapiens)
increased: amount of expression of insulin (relative) (first day taken as 1, FIG. 6) | amount of expression of glucagon (relative) (first day taken as 1, FIG. 7) | amount of expression of somatostatin (relative) (first day taken as 1, FIG. 8)
